Holding throughout (format): functional
Conditions in all cases: foliar, 120 h

For test [1], the system named is Spodoptera litura. Put plainly: Insecticidal activity against the Spodoptera litura larvae in compound treated cabbage leaves assessed as mortality at 200 ppm measured after 5 days by leaf dipping method.
Test [2] concerns Spodoptera litura. Put plainly: Insecticidal activity against the Spodoptera litura larvae in compound treated cabbage leaves assessed as mortality at 12.5 ppm measured after 5 days by leaf dipping method.
For test [3], the system named is Spodoptera litura. Put plainly: Insecticidal activity against the Spodoptera litura larvae in compound treated cabbage leaves assessed as mortality at 50 ppm measured after 5 days by leaf dipping method.
The test system of test [4] is Spodoptera litura. Kind of test: Insecticidal activity against the Spodoptera litura larvae in compound treated cabbage leaves assessed as mortality at 3.1 ppm measured after 5 days by leaf dipping method.

Structures are written as SMILES.

Broadly, the mortality is the percentage killed.

With `CCc1ccc(C(=O)NN(C(=O)c2ccc3c(c2)OCCO3)C(C)(C)C)cc1`, the mortality at 200 ppm in the test with Spodoptera litura [1] is 0%.
Take `CCc1ccc(C(=O)NN(C(=O)c2ccc3ocnc3c2)C(C)(C)C)cc1`: the mortality at 200 ppm in the test on Spodoptera litura [1] was 5%.
Turning to `CCc1ccc(C(=O)NN(C(=O)c2cc(C)cc(C(F)F)c2)C(C)(C)C)cc1`, the mortality at 12.5 ppm with Spodoptera litura [2] was 8%. In addition, in the test on Spodoptera litura [3], the mortality at 50 ppm was found to be 10%. Also, the mortality at 200 ppm in the test with Spodoptera litura [1] was determined as 10%.
In the case of `CCc1ccc(C(=O)NN(C(=O)c2ccc3ncoc3c2)C(C)(C)C)cc1`, the mortality at 200 ppm in the test with Spodoptera litura [1] was found to be 1%.
On to `CCc1ccc(C(=O)NN(C(=O)c2cc(C)cc(C)c2)C(C)(C)C)cc1` [TEBUFENOZIDE], for which the mortality at 3.1 ppm with Spodoptera litura [4] stood at 3%. Besides, the mortality at 12.5 ppm in the test with Spodoptera litura [2] worked out at 10%. Also, in the test with Spodoptera litura [3], the mortality at 50 ppm came to 10%. Further, the mortality at 200 ppm with Spodoptera litura [1] stood at 10%.
In the case of `CCCCOCc1cc(C)cc(C(=O)N(NC(=O)c2ccc(CC)cc2)C(C)(C)C)c1`, the mortality at 200 ppm in the test on Spodoptera litura [1] is 0%.
In the case of `CCc1ccc(C(=O)NN(C(=O)c2cc(C)cc(CCl)c2)C(C)(C)C)cc1`, in the test on Spodoptera litura [3], the mortality at 50 ppm worked out at 1%. Besides, the mortality at 200 ppm in the test on Spodoptera litura [1] worked out at 7%.
As for `CCc1ccc(C(=O)NN(C(=O)c2cc(C)cc(CO)c2)C(C)(C)C)cc1`, in the test on Spodoptera litura [1], the mortality at 200 ppm came out at 0%.
With `CCc1ccc(C(=O)NN(C(=O)c2cc(C)cc(COC)c2)C(C)(C)C)cc1`, the mortality at 50 ppm in the test with Spodoptera litura [3] is 5%. In addition, the mortality at 200 ppm in the test on Spodoptera litura [1] was 9%.
As for `CCc1ccc(C(=O)NN(C(=O)c2cc(C)cc(C=O)c2)C(C)(C)C)cc1`, in the test with Spodoptera litura [1], the mortality at 200 ppm came to 0%.
On to `CCc1ccc(C(=O)NNC(=O)C2CC(C)CC(C)C2)cc1` (centres undefined), for which, in the test on Spodoptera litura [3], the mortality at 50 ppm came to 0%. The mortality at 200 ppm in the test with Spodoptera litura [1] amounted to 1%.
With `CCc1ccc(C(=O)NN(C(=O)C2C=C(C)CC(C)=C2)C(C)(C)C)cc1`, in the test with Spodoptera litura [2], the mortality at 12.5 ppm was found to be 4%. The mortality at 50 ppm in the test on Spodoptera litura [3] worked out at 10%. The mortality at 200 ppm in the test on Spodoptera litura [1] was 10%.
Consider `CCc1ccc(C(=O)NN(C(=O)c2cc(C)cc(CO[Si](C)(C)C(C)(C)C)c2)C(C)(C)C)cc1`, for which, in the test with Spodoptera litura [1], the mortality at 200 ppm came out at 0%.
Turning to `CCc1ccc(C(=O)NN(C(=O)c2cc(C)cc(CF)c2)C(C)(C)C)cc1`, in the test on Spodoptera litura [2], the mortality at 12.5 ppm amounted to 5%. Besides, in the test with Spodoptera litura [3], the mortality at 50 ppm was 10%. Moreover, in the test on Spodoptera litura [1], the mortality at 200 ppm was determined as 10%.
Turning to `C=Cc1cc(C)cc(C(=O)N(NC(=O)c2ccc(CC)cc2)C(C)(C)C)c1`, the mortality at 12.5 ppm in the test on Spodoptera litura [2] is 1%. Moreover, the mortality at 50 ppm in the test with Spodoptera litura [3] stood at 7%. Besides, the mortality at 200 ppm in the test with Spodoptera litura [1] worked out at 10%.
